US12281122B1, “PI3K inhibitors” (Cogent Biosciences, Inc., priority 2023, dated 2025)

Tests used:
[1] = test system: T47D (PI3Kα-H1047R) cell line; experiment: HTRF phospho-AKT(S473) cell assay in T47D cells; type: cell-based, human
Method in brief: (§1)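 HTRF read-out of phospho-AKT(S473) in lysates gave IC50 values after 2 h compound exposure at 37° C. Dose series was 12 points at 1:3, topping at 5 μM for T47D and 10 μM for SKBR3. Only SKBR3 received 70 ng/ml PDGF-BB during the last 15 minutes.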

[2] = test system: SKBR3 (PI3Kα-Wild Type) cell line; experiment: HTRF phospho-AKT(S473) cell assay in SKBR3 cells; type: cell-based, human
Method in brief: as §1

[3] = Homo sapiens; HTRF phospho-AKT(S473), T47D (PI3Kα-H1047R) cells, 2 hours compound incubation
[4] = Homo sapiens, SK-BR-3; HTRF phospho-AKT(S473), SKBR3 (PI3Kα-Wild Type) cells, 2 hours compound incubation, PDGF-BB stimulated
[5] = Homo sapiens; T47D (PI3Kα-H1047R) cells, HTRF phospho-AKT(S473), 2 hours compound incubation
[6] = Homo sapiens, SK-BR-3; SKBR3 (PI3Kα-Wild Type) cells, HTRF phospho-AKT(S473), 2 hours compound incubation, PDGF-BB stimulated

Compound	IC50 [1, 3]	IC50 [2, 4]	IC50 [1, 5]	IC50 [2, 6]
Cc1cc([C@@H](C)Nc2ccc(Cl)nc2C(=O)NS(C)(=O)=O)c2nc([C@@H]3CCCN(c4cccnc4)C3)n(C)c(=O)c2c1 (relative stereo) [Compound 211, 6-chloro-3-(((R)-1-(3,6-dimethyl-4-oxo-2-((R*)-1-(pyridin-3-yl)piperidin-3-yl)-3,4-dihydroquinazolin-8-yl)ethyl)amino)-N-(methylsulfonyl) picolinamide]			< 250 nM	1000 to 5000 nM
COc1nccc(N2C[C@H]3C[C@@H]2CN3c2nc3c([C@@H](C)Nc4ccc(Cl)nc4C(=O)NS(C)(=O)=O)cc(C)cc3c(=O)n2C)n1 [Compound 582, 6-chloro-3-(((R)-1-(2-((1R,4R)-5-(2-methoxypyrimidin-4-yl)-2,5-diazabicyclo [2.2.1]heptan-2-yl)-3,6-dimethyl-4-oxo-3,4-dihydroquinazolin-8-yl)ethyl)amino)-N-(methylsulfonyl) picolinamide]	250 to 500 nM	≥ 5000 nM		
Cc1cc([C@@H](C)Nc2ccc(Cl)nc2C(=O)NS(C)(=O)=O)c2nc(N3CCC(c4ccc(F)cn4)C3)n(C)c(=O)c2c1 (stereo partly drawn) [Compound 679, 6-chloro-3-(((1R)-1-(2-(3-(5-fluoropyridin-2-yl)pyrrolidin-1-yl)-3,6-dimethyl-4-oxo-3,4-dihydroquinazolin-8-yl)ethyl)amino)-N-(methylsulfonyl) picolinamide]	250 to 500 nM	1000 to 5000 nM		
Cc1cc([C@@H](C)Nc2ccc(Cl)nc2C(=O)NS(C)(=O)=O)c2nc(N3C[C@@H]4[C@H](C3)[C@H]4c3ccnn3C)n(C)c(=O)c2c1 [Compound 296, 6-chloro-3-(((R)-1-(3,6-dimethyl-2-((1R,5S,6R)-6-(1-methyl-1H-pyrazol-5-yl)-3-azabicyclo[3.1.0]hexan-3-yl)-4-oxo-3,4-dihydroquinazolin-8-yl)ethyl)amino)-N-(methylsulfonyl) picolinamide]			250 to 500 nM	1000 to 5000 nM

Other lines, results leading:

IC50 [1, 3]	IC50 [2, 4]	IC50 [1, 5]	IC50 [2, 6]	Compound
250 to 500 nM	≥ 5000 nM			Cc1cc([C@@H](C)Nc2ccc(Cl)nc2C(=O)NS(C)(=O)=O)c2nc(N3CCC(n4cc(C(F)(F)F)cn4)CC3)n(C)c(=O)c2c1 [Compound 681, (R)-6-chloro-3-((1-(3,6-dimethyl-4-oxo-2-(4-(4-(trifluoromethyl)-1H-pyrazol-1-yl)piperidin-1-yl)-3,4-dihydroquinazolin-8-yl)ethyl)amino)-N-(methylsulfonyl) picolinamide]
250 to 500 nM	1000 to 5000 nM			Cc1cc([C@@H](C)Nc2ccc(Cl)nc2C(=O)NS(C)(=O)=O)c2nc(N3CCN(c4cc(F)cnc4C)CC3)n(C)c(=O)c2c1 [Compound 730, (R)-6-chloro-3-((1-(2-(4-(5-fluoro-2-methylpyridin-3-yl)piperazin-1-yl)-3,6-dimethyl-4-oxo-3,4-dihydroquinazolin-8-yl)ethyl)amino)-N-(methylsulfonyl) picolinamide]
500 to 1000 nM	≥ 5000 nM			Cc1cc([C@@H](C)Nc2ccc(Cl)nc2C(=O)NS(C)(=O)=O)c2nc(N3CCC(c4ccc[nH]c4=O)CC3)n(C)c(=O)c2c1 [Compound 706, (R)-6-chloro-3-((1-(3,6-dimethyl-4-oxo-2-(4-(2-oxo-1,2-dihydropyridin-3-yl)piperidin-1-yl)-3,4-dihydroquinazolin-8-yl)ethyl)amino)-N-(methylsulfonyl) picolinamide]
250 to 500 nM	≥ 5000 nM			Cc1cc([C@@H](C)Nc2ccc(Cl)nc2C(=O)NS(C)(=O)=O)c2nc([C@H]3[C@@H]4CN(c5ccc(C)nc5)C[C@@H]43)n(C)c(=O)c2c1 [Compound 829, 6-chloro-3-(((R)-1-(3,6-dimethyl-2-((1R,5S,6r)-3-(6-methylpyridin-3-yl)-3-azabicyclo[3.1.0]hexan-6-yl)-4-oxo-3,4-dihydroquinazolin-8-yl)ethyl)amino)-N-(methylsulfonyl) picolinamide]
